{"source": "paper PMC5218480", "about": "(PLoS ONE, 2017)", "test_system": "MV-4-11 cells", "experiment": "Gene expression microarray analysis (Affymetrix PrimeView) and GSEA", "format": "cell-based, human", "set-up": "RFU PODN (11730768_x_at) / Fold change /veh PODN (11730768_x_at) / RFU LINC00158 (11744669_a_at) / Fold change /veh LINC00158 (11744669_a_at) / RFU DUSP10 (11751237_a_at) / Fold change /veh DUSP10 (11751237_a_at) / RFU ID3 (11757404_x_at) / Fold change /veh ID3 (11757404_x_at) / RFU PLEKHG5 (11737974_s_at) / Fold change /veh PLEKHG5 (11737974_s_at) / RFU LRRC4B (11730491_at) / Fold change /veh LRRC4B (11730491_at) / RFU GIMAP4 (11747438_a_at) / Fold change /veh GIMAP4 (11747438_a_at) / RFU KRT8 (11758183_x_at) / Fold change /veh KRT8 (11758183_x_at) / RFU CNN1 (11734310_a_at) / Fold change /veh CNN1 (11734310_a_at) / RFU VPS37D (11726825_at) / Fold change /veh VPS37D (11726825_at) / RFU C10orf10 (11716522_x_at) / Fold change /veh C10orf10 (11716522_x_at) / RFU KIR2DL2 /// KIR2DL4 /// KIR2DL5A /// KIR2DL5B /// KIR2DS1 /// KIR2DS2 /// KIR2DS3 /// KIR2DS4 /// KIR3DL3 /// KIR3DL3 /// KIR3DS1 (11738374_at) / Fold change /veh KIR2DL2 /// KIR2DL4 /// KIR2DL5A /// KIR2DL5B /// KIR2DS1 /// KIR2DS2 /// KIR2DS3 /// KIR2DS4 /// KIR3DL3 /// KIR3DL3 /// KIR3DS1 (11738374_at) / RFU C1QL1 (11718748_at) / Fold change /veh C1QL1 (11718748_at) / RFU TMPRSS4 (11747572_a_at) / Fold change /veh TMPRSS4 (11747572_a_at) / RFU HAMP (11756126_x_at) / Fold change /veh HAMP (11756126_x_at) / RFU RNFT2 (11725882_a_at) / Fold change /veh RNFT2 (11725882_a_at) / RFU NR4A2 (11747474_a_at) / Fold change /veh NR4A2 (11747474_a_at) / RFU ABCC12 (11746883_a_at) / Fold change /veh ABCC12 (11746883_a_at) / RFU TMEM136 (11760407_x_at) / Fold change /veh TMEM136 (11760407_x_at) / RFU CLDN22 /// WWC2 (11732394_at) / Fold change /veh CLDN22 /// WWC2 (11732394_at) / RFU HLA-DPB1 (11760878_x_at) / Fold change /veh HLA-DPB1 (11760878_x_at) / RFU SPINT1 (11716480_a_at) / Fold change /veh SPINT1 (11716480_a_at) / RFU GAP43 (11754022_s_at) / Fold change /veh GAP43 (11754022_s_at) / RFU A4GNT (11735810_at) / Fold change /veh A4GNT (11735810_at) / RFU PRB3 (11715151_x_at) / Fold change /veh PRB3 (11715151_x_at) / RFU TUBB4B (11761932_at) / Fold change /veh TUBB4B (11761932_at) / RFU CAPN14 (11732068_a_at) / Fold change /veh CAPN14 (11732068_a_at) / RFU TMCC2 (11721928_a_at) / Fold change /veh TMCC2 (11721928_a_at) / RFU IRGQ (11745062_a_at) / Fold change /veh IRGQ (11745062_a_at) / RFU FAM174B (11720279_a_at) / Fold change /veh FAM174B (11720279_a_at) / RFU TMPRSS4 (11748680_a_at) / Fold change /veh TMPRSS4 (11748680_a_at) / RFU FAM212B (11763350_a_at) / Fold change /veh FAM212B (11763350_a_at) / RFU PLEKHG5 (11743358_a_at) / Fold change /veh PLEKHG5 (11743358_a_at) / RFU ZSCAN30 (11745921_a_at) / Fold change /veh ZSCAN30 (11745921_a_at) / RFU CMKLR1 (11741424_a_at) / Fold change /veh CMKLR1 (11741424_a_at) / RFU LOC101060620 /// MAPK8IP1 (11723275_at) / Fold change /veh LOC101060620 /// MAPK8IP1 (11723275_at) / RFU SPTSSB (11747773_x_at) / Fold change /veh SPTSSB (11747773_x_at) / RFU PRSS12 (11739890_at) / Fold change /veh PRSS12 (11739890_at) / RFU BIN1 (11741810_x_at) / Fold change /veh BIN1 (11741810_x_at) / RFU WNT11 (11732464_a_at) / Fold change /veh WNT11 (11732464_a_at) / RFU C10orf10 (11716521_a_at) / Fold change /veh C10orf10 (11716521_a_at) / RFU C5orf56 (11738089_at) / Fold change /veh C5orf56 (11738089_at) / RFU CYB561 (11721691_x_at) / Fold change /veh CYB561 (11721691_x_at) / RFU ANKRD19P (11752326_a_at) / Fold change /veh ANKRD19P (11752326_a_at) / RFU OR2T12 /// OR2T33 /// OR2T8 (11738714_s_at) / Fold change /veh OR2T12 /// OR2T33 /// OR2T8 (11738714_s_at) / RFU VCAN (11748164_a_at) / Fold change /veh VCAN (11748164_a_at) / RFU JSRP1 (11732532_at) / Fold change /veh JSRP1 (11732532_at) / RFU KRTAP10-11 (11738290_x_at) / Fold change /veh KRTAP10-11 (11738290_x_at) / RFU MYO3A (11730013_a_at) / Fold change /veh MYO3A (11730013_a_at) / RFU EBF3 (11725865_a_at) / Fold change /veh EBF3 (11725865_a_at) / RFU CAMK2N1 (11719241_x_at) / Fold change /veh CAMK2N1 (11719241_x_at) / RFU C5orf56 (11738088_a_at) / Fold change /veh C5orf56 (11738088_a_at) / RFU OLFML3 (11715873_a_at) / Fold change /veh OLFML3 (11715873_a_at) / RFU LOC100653217 /// NTM (11731650_a_at) / Fold change /veh LOC100653217 /// NTM (11731650_a_at) / RFU MAPK11 (11762145_a_at) / Fold change /veh MAPK11 (11762145_a_at) / RFU FIZ1 (11724087_x_at) / Fold change /veh FIZ1 (11724087_x_at) / RFU OASL (11726364_x_at) / Fold change /veh OASL (11726364_x_at) / RFU SOX15 (11748057_x_at) / Fold change /veh SOX15 (11748057_x_at) / RFU CD79A (11719716_a_at) / Fold change /veh CD79A (11719716_a_at) / RFU HIST1H1D (11736915_at) / Fold change /veh HIST1H1D (11736915_at) / RFU CASKIN2 (11723855_a_at) / Fold change /veh CASKIN2 (11723855_a_at) / RFU LOC730098 (11760151_x_at) / Fold change /veh LOC730098 (11760151_x_at) / RFU OR4N2 (11742367_at) / Fold change /veh OR4N2 (11742367_at) / RFU PRRT2 (11749266_a_at) / Fold change /veh PRRT2 (11749266_a_at) / RFU SNX32 (11753110_a_at) / Fold change /veh SNX32 (11753110_a_at) / RFU CDHR5 (11726645_a_at) / Fold change /veh CDHR5 (11726645_a_at) / RFU RCAN1 (11760418_a_at) / Fold change /veh RCAN1 (11760418_a_at) / RFU FAM167A (11723789_a_at) / Fold change /veh FAM167A (11723789_a_at) / RFU FAM26E (11764081_at) / Fold change /veh FAM26E (11764081_at) / RFU ISYNA1 (11749810_s_at) / Fold change /veh ISYNA1 (11749810_s_at) / RFU ACY1 (11761880_at) / Fold change /veh ACY1 (11761880_at) / RFU 11764098_at / Fold change /veh 11764098_at / RFU SAMD14 (11745864_x_at) / Fold change /veh SAMD14 (11745864_x_at) / RFU NPB (11741838_a_at) / Fold change /veh NPB (11741838_a_at) / RFU TMPRSS6 (11731388_a_at) / Fold change /veh TMPRSS6 (11731388_a_at) / RFU KRTAP10-2 (11738614_at) / Fold change /veh KRTAP10-2 (11738614_at) / RFU ARHGAP8 /// PRR5-ARHGAP8 (11727945_x_at) / Fold change /veh ARHGAP8 /// PRR5-ARHGAP8 (11727945_x_at) / RFU KRTAP5-7 /// NADSYN1 (11734609_at) / Fold change /veh KRTAP5-7 /// NADSYN1 (11734609_at) / RFU RASL12 (11751679_a_at) / Fold change /veh RASL12 (11751679_a_at) / RFU CDKN2B (11736163_a_at) / Fold change /veh CDKN2B (11736163_a_at) / RFU PRF1 (11729649_at) / Fold change /veh PRF1 (11729649_at) / RFU, ZNF638 /// ZNF638-IT1 / Fold change vs veh, ZNF638 /// ZNF638-IT1 / RFU, PANK3 / Fold change vs veh, PANK3 / RFU, SH3YL1 / Fold change vs veh, SH3YL1 / RFU, ZEB2 / Fold change vs veh, ZEB2 / RFU, NRIP1 / Fold change vs veh, NRIP1 / RFU, PTTG1IP / Fold change vs veh, PTTG1IP / RFU, CAPN2 / Fold change vs veh, CAPN2 / RFU, MED14 / Fold change vs veh, MED14 / RFU, SNORA58 / Fold change vs veh, SNORA58 / RFU, C1orf63 / Fold change vs veh, C1orf63 / RFU, LRRFIP1 / Fold change vs veh, LRRFIP1 / RFU, NDUFAF7 / Fold change vs veh, NDUFAF7 / RFU, SLC12A2 / Fold change vs veh, SLC12A2 / RFU, IBTK / Fold change vs veh, IBTK / RFU, ESF1 / Fold change vs veh, ESF1 / Fold change vs veh, TMEM50B / RFU, TAOK1 / Fold change vs veh, TAOK1 / RFU, ACBD3 / Fold change vs veh, ACBD3 / RFU, TMA16 / Fold change vs veh, TMA16 / RFU, RWDD3 / Fold change vs veh, RWDD3 / RFU, BCAT1 / Fold change vs veh, BCAT1 / RFU, EDEM3 / Fold change vs veh, EDEM3 / RFU, TMEM33 / Fold change vs veh, TMEM33 / RFU, WDR75 / Fold change vs veh, WDR75 / RFU, AHCTF1 / Fold change vs veh, AHCTF1 / RFU, TFRC / Fold change vs veh, TFRC / RFU, ZDHHC17 / Fold change vs veh, ZDHHC17 / RFU, NOM1 / Fold change vs veh, NOM1 / RFU, ARL8B / Fold change vs veh, ARL8B / RFU, ZBTB11 / Fold change vs veh, ZBTB11 / RFU, TAMM41 / Fold change vs veh, TAMM41 / RFU, KIAA1704 /// LOC100996395 / Fold change vs veh, KIAA1704 /// LOC100996395 / RFU, ING1 / Fold change vs veh, ING1 / RFU, TRMT61B / Fold change vs veh, TRMT61B / RFU, FUBP3 / Fold change vs veh, FUBP3 / RFU, TP53 / Fold change vs veh, TP53 / RFU, TNKS2 / Fold change vs veh, TNKS2 / RFU, ZFP14 / Fold change vs veh, ZFP14 / RFU, ACTR2 / Fold change vs veh, ACTR2 / RFU, PPP3R1 / Fold change vs veh, PPP3R1 / RFU, PIK3R1 / Fold change vs veh, PIK3R1 / RFU, HNRNPA1 / Fold change vs veh, HNRNPA1 / RFU, RNF170 / Fold change vs veh, RNF170 / RFU, ZNF28 / Fold change vs veh, ZNF28 / RFU, RNGTT / Fold change vs veh, RNGTT / RFU, OGT / Fold change vs veh, OGT / RFU, BRD1 / Fold change vs veh, BRD1 / RFU, MARS / Fold change vs veh, MARS / RFU, ZNF655 / Fold change vs veh, ZNF655 / RFU, FAHD1 / Fold change vs veh, FAHD1 / RFU, BDP1 / Fold change vs veh, BDP1 / RFU, LRRCC1 / Fold change vs veh, LRRCC1 / RFU, ARID1A / Fold change vs veh, ARID1A / RFU, ZNF146 / Fold change vs veh, ZNF146 / RFU, ZNF330 / Fold change vs veh, ZNF330 / RFU, GPN3 / Fold change vs veh, GPN3 / RFU, C9orf123 / Fold change vs veh, C9orf123 / RFU, N4BP2L2 / Fold change vs veh, N4BP2L2 / RFU, ARFIP1 / Fold change vs veh, ARFIP1 / RFU, FAM179B / Fold change vs veh, FAM179B / RFU, BCL10 / Fold change vs veh, BCL10 / RFU, UHRF1BP1L / Fold change vs veh, UHRF1BP1L / RFU, BET1 / Fold change vs veh, BET1 / RFU, CNOT2 / Fold change vs veh, CNOT2 / RFU, ZNF268 / Fold change vs veh, ZNF268 / Fold change vs veh, ZNF507 / RFU, DGCR2 / Fold change vs veh, DGCR2 / RFU, WDSUB1 / Fold change vs veh, WDSUB1 / Fold change vs veh, HSP90B1 /// MIR3652 / RFU, ADSS / Fold change vs veh, ADSS / RFU, GK / Fold change vs veh, GK / RFU, ZNF148 / Fold change vs veh, ZNF148 / RFU, TAF9 / Fold change vs veh, TAF9 / RFU, SLC1A5 / Fold change vs veh, SLC1A5 / RFU, SLMO2 / Fold change vs veh, SLMO2 / RFU, ABCC4 / Fold change vs veh, ABCC4 / RFU, LOC101060439 /// RAP1B / Fold change vs veh, LOC101060439 /// RAP1B / RFU, RFX7 / Fold change vs veh, RFX7 / RFU, GTPBP10 / Fold change vs veh, GTPBP10 / RFU, CNEP1R1 / Fold change vs veh, CNEP1R1 / RFU, BIVM-ERCC5 /// ERCC5 / Fold change vs veh, BIVM-ERCC5 /// ERCC5 / RFU, ILF3 / Fold change vs veh, ILF3 / RFU 11762660_at / Fold change /veh 11762660_at / RFU VCAN (11757783_s_at) / Fold change /veh VCAN (11757783_s_at) / RFU DDX43 (11728927_at) / Fold change /veh DDX43 (11728927_at) / RFU KRT8 (11758188_x_at) / Fold change /veh KRT8 (11758188_x_at) / RFU NKD1 (11759106_at) / Fold change /veh NKD1 (11759106_at) / RFU SRD5A1 (11742802_a_at) / Fold change /veh SRD5A1 (11742802_a_at) / RFU TPSAB1 /// TPSB2 (11721975_s_at) / Fold change /veh TPSAB1 /// TPSB2 (11721975_s_at) / RFU GSTM3 (11746129_a_at) / Fold change /veh GSTM3 (11746129_a_at) / RFU IL23R (11737362_x_at) / Fold change /veh IL23R (11737362_x_at) / RFU TMEM51 (11727254_a_at) / Fold change /veh TMEM51 (11727254_a_at) / RFU PIWIL2 (11732686_x_at) / Fold change /veh PIWIL2 (11732686_x_at) / RFU ORM1 (11744905_x_at) / Fold change /veh ORM1 (11744905_x_at) / RFU CCDC152 (11743942_at) / Fold change /veh CCDC152 (11743942_at) / RFU ECM1 (11717891_a_at) / Fold change /veh ECM1 (11717891_a_at) / RFU IL23R (11748794_a_at) / Fold change /veh IL23R (11748794_a_at) / RFU TNFAIP8L3 (11732012_x_at) / Fold change /veh TNFAIP8L3 (11732012_x_at) / RFU MBOAT4 (11741988_at) / Fold change /veh MBOAT4 (11741988_at) / RFU 11764193_at / Fold change /veh 11764193_at / RFU TMEM53 (11763286_at) / Fold change /veh TMEM53 (11763286_at) / RFU MAGEB2 (11727129_at) / Fold change /veh MAGEB2 (11727129_at) / RFU TMEM200A (11744735_a_at) / Fold change /veh TMEM200A (11744735_a_at) / RFU CCDC152 (11751479_a_at) / Fold change /veh CCDC152 (11751479_a_at) / RFU FAM211A (11726209_a_at) / Fold change /veh FAM211A (11726209_a_at) / RFU RGS16 (11746705_a_at) / Fold change /veh RGS16 (11746705_a_at) / RFU VCAN (11755009_s_at) / Fold change /veh VCAN (11755009_s_at) / RFU RHOB (11743442_s_at) / Fold change /veh RHOB (11743442_s_at) / RFU RGS16 (11720943_a_at) / Fold change /veh RGS16 (11720943_a_at) / RFU RGS16 (11720944_at) / Fold change /veh RGS16 (11720944_at) / RFU, VPS4B / Fold change vs veh, VPS4B / RFU, CREB1 / Fold change vs veh, CREB1 / RFU, DNAJC13 / Fold change vs veh, DNAJC13 / RFU, GNAQ / Fold change vs veh, GNAQ / RFU, CDK5R1 / Fold change vs veh, CDK5R1 / RFU, ZRANB3 / Fold change vs veh, ZRANB3 / RFU, CUL4A / Fold change vs veh, CUL4A / RFU, CCNY / Fold change vs veh, CCNY / RFU, UFL1 / Fold change vs veh, UFL1 / RFU, COG3 / Fold change vs veh, COG3 / RFU, DIAPH2 / Fold change vs veh, DIAPH2 / RFU, SKA2 / Fold change vs veh, SKA2 / RFU, AFF3 / Fold change vs veh, AFF3 / RFU, LMF1 / Fold change vs veh, LMF1 / RFU, IPO11 / Fold change vs veh, IPO11 / RFU, DFFB / Fold change vs veh, DFFB / RFU, FOXP1 / Fold change vs veh, FOXP1 / RFU, CARD8 / Fold change vs veh, CARD8 / RFU, STRN3 / Fold change vs veh, STRN3 / RFU, ADK / Fold change vs veh, ADK / RFU, RASSF2 / Fold change vs veh, RASSF2 / RFU, WIPF1 / Fold change vs veh, WIPF1 / RFU, LARP1B / Fold change vs veh, LARP1B / RFU, RASA1 / Fold change vs veh, RASA1 / RFU, RB1 / Fold change vs veh, RB1 / RFU, PPFIA1 / Fold change vs veh, PPFIA1 / RFU, MAT2A / Fold change vs veh, MAT2A / RFU, CCT5 / Fold change vs veh, CCT5 / RFU, WDR92 / Fold change vs veh, WDR92 / RFU, CUX1 / Fold change vs veh, CUX1 / RFU, TTC7A / Fold change vs veh, TTC7A / RFU, TMEM135 / Fold change vs veh, TMEM135 / RFU, DEPTOR / Fold change vs veh, DEPTOR / RFU, CPM / Fold change vs veh, CPM / RFU, DNAJB6 / Fold change vs veh, DNAJB6 / RFU, CACNA2D3 / Fold change vs veh, CACNA2D3 / RFU, DTX4 / Fold change vs veh, DTX4 / RFU, TFCP2 / Fold change vs veh, TFCP2 / RFU, GMCL1 /// GMCL1P1 / Fold change vs veh, GMCL1 /// GMCL1P1 / RFU, AEBP2 / Fold change vs veh, AEBP2 / RFU, SNHG1 /// SNORD22 /// SNORD25 /// SNORD26 /// SNORD27 /// SNORD28 /// SNORD29 /// SNORD31 / Fold change vs veh, SNHG1 /// SNORD22 /// SNORD25 /// SNORD26 /// SNORD27 /// SNORD28 /// SNORD29 /// SNORD31 / Fold change (Aza/veh), C12orf56 (ProbeSet 11735607_a_at) / Fold change (ACY-1035/veh), C12orf56 (ProbeSet 11735607_a_at) / Fold change (Aza/veh), FGFR1OP (ProbeSet 11751329_s_at) / Fold change (ACY-1035/veh), FGFR1OP (ProbeSet 11751329_s_at) / Fold change (Aza/veh), VPS36 (ProbeSet 11739960_a_at) / Fold change (ACY-1035/veh), VPS36 (ProbeSet 11739960_a_at) / RFU SYPL1 (11715823_x_at) / Fold change /veh SYPL1 (11715823_x_at) / RFU IGFBP7 (11715501_s_at) / Fold change /veh IGFBP7 (11715501_s_at) / RFU REEP3 (11722064_at) / Fold change /veh REEP3 (11722064_at) / RFU IGLL1 (11728026_x_at) / Fold change /veh IGLL1 (11728026_x_at): dose or concentration left out as unconfirmed", "details": "ProbeSet 11755425_a_at; LIST B"}
{"smiles": "Nc1ccc(-c2cccs2)cc1NC(=O)c1ccc2c(c1)cc(C1CC1)n2CCN1CCOCC1", "note": "[ACY-1035]", "values": [{"measurement": "RFU, FAM179B", "value": 77.88, "unit": "RFU"}]}
